Results on 17 compounds are retold here after article PMC4325551, “Inhibition of Rat 5α-Reductase Activity and Testosterone-Induced Sebum Synthesis in Hamster Sebocytes by an Extract of Quercus acutissima Cortex” (Evidence-based Complementary and Alternative Medicine : eCAM, 2015).

In series [1] the target is T1, rat liver microsomal 5α-reductase (Rattus norvegicus, UniProt P24008).
T1 construct: The reaction was started with the addition of liver microsomes (20 μg protein); from tissue; host or cells: liver microsomes of male Sprague–Dawley rats
T1 sequence (P24008 1-259): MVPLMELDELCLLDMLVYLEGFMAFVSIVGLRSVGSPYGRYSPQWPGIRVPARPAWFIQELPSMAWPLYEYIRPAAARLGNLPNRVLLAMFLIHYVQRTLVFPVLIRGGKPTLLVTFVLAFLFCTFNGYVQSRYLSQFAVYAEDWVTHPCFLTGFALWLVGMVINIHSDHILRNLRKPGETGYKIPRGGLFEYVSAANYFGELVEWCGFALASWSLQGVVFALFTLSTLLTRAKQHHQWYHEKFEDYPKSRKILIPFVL
Description: 5α-reductase assay using rat liver microsomes (testosterone metabolism, HPLC and TLC). The class given is biochemical. The conditions noted are these: for effect on 5α-reductase activity: examined at 0.1, 1, 10, and 100 μmol/L; for inhibition of 5α-reductase activity: at 10 and 100 μmol/L; for Inhibitory activity on 5α-reductase (% of control) / pIC50: testosterone 3.5 μmol/L, 30 min, rat liver microsomes 40 μg/mL, HPLC; for Inhibitory activity on 5α-reductase (% of control): mean ± SEM, N = 3. The protocol: Rat liver microsomes were prepared by the method of Lee et al.. Male Sprague–Dawley rats (body weight, 300 to 320 g; Clea Japan, Tokyo, Japan) were fasted overnight to decrease the concentration of liver glycogen and then sacrificed. The liver was excised and washed in ice-cold homogenizing buffer containing 0.32 mol/L sucrose, 1 mmol/L dithiothreitol (Wako Pure Chemical Industries), and 20 mmol/L potassium phosphate, pH 6.5. The following procedures were all carried out at 4°C. The tissue was minced with a pair of scissors and then homogenized in homogenizing buffer using a Potter-Elvehjem grinder. The homogenate was then centrifuged at 10 000 g for 10 min. The resulting pellet was washed with two pellet volumes of homogenizing buffer and centrifuged again. The supernatants from the two centrifugations were combined and further centrifuged at 105 000 g for 1 h. The resulting pellet (microsomes) was suspended in homogenizing buffer and centrifuged again. The microsomes were resuspended in homogenizing buffer. The microsome suspension was divided into small aliquots and stored at −80°C. The microsomes were diluted with 40 mmol/L potassium phosphate, pH 6.5, immediately before use. Unlike human liver, rat liver microsomes have the 5α-R1 but not the 5α-R2 isoform.
Briefly, the reaction solution was preincubated with or without a test sample in 1 mmol/L dithiothreitol, 40 mmol/L potassium phosphate, pH 6.5, 100 μmol/L NADPH (Oriental Yeast, Tokyo, Japan), and 3.5 μmol/L testosterone (Wako Pure Chemical Industries) in a final volume of 0.5 mL for 20 min at room temperature. The reaction was started with the addition of liver microsomes (20 μg protein). After incubation at 37°C for 30 min, the reaction solution was extracted with 2 mL ethyl acetate. The ethyl acetate phase (upper phase) was transferred to a tube and evaporated using a centrifugal concentrator (Tomy Seiko, Tokyo, Japan). Testosterone and the metabolites were measured by two chromatography methods, HPLC (Shimadzu, Kyoto, Japan) and TLC.
The residue was dissolved in acetonitrile and analyzed using the HPLC system. The reverse-phase HPLC analysis was performed on a C18 column (3.0 × 150 mm, GL Science, Japan) at a column oven temperature of 50°C and UV detection of 240 nm. The isocratic mobile phase of acetonitrile/water (50 : 50, v/v) was flowed at 0.4 mL/min through the column.
To detect the steroids by TLC, the residue containing steroids was taken up in ethanol and chromatographed on a TLC plate (Silica gel 60 F254, Merck, Darmstadt, Germany), using ethyl acetate-hexane (1 : 1, v/v) as the developing solvent system at room temperature. Testosterone, (Tokyo Chemical Industry Co., Tokyo, Japan) and 5α-androstane-3α,17β-diol (Sigma-Aldrich) were applied to TLC as androgen standards. The plate was exposed to 10% sulfuric acid using an atomizer and then heated on a hot plate. The fluorescent signals were visualized by irradiation of UV light at 302 nm using a ChemiDoc XRS Plus (BIO-RAD, Hercules, CA).
On the technique in general: Liver microsomes are vesicles of endoplasmic reticulum, rich in cytochrome P450 enzymes.

For series [2], the system named is primary hamster sebocytes (Ha-SE). Description: cell cytotoxicity (XTT) in undifferentiated hamster sebocytes. The following applies: 0.2% triton X-100, 24 h in the presence of EGF. The protocol: Four Figures and Two Tables
Hamster-derived sebaceous gland cells (Ha-SE) were precultured until confluent in the presence of 10 ng/mL epidermal growth factor (EGF), and further cultured with 10, 30 […]
vehicle in the presence of EGF. Twenty four hours later, cell cytotoxicity was measured […]
Fig. S2. Bioconversion of exogenous dihydrotestosterone to 5α-androstane-3,17-diol by rat liver microsomal enzymes […]
min in the presence or absence of rat liver microsomes (40 μg/mL) and the co-factors.
The metabolites were extracted with ethyl acetate after incubation, and analyzed by TLC. All androgen standards were applied at 0.1 μg/μL/spot. T.: testosterone, DHT: dihydrotestosterone, A.diol: 5α-androstane-3α,17β-diol
A general note: Tetrazolium dyes change colour on reduction, which living cells bring about.

The pIC50 is −log10 of the IC50, conventionally taken in molar units. Low values mean a large IC50, high ones a small IC50.

pIC50: −log10 of the molar value.

Turning to `COc1cc2ccc(=O)oc2c(O[C@@H]2O[C@H](CO)[C@@H](O)[C@H](O)[C@H]2O)c1O` [fraxin], the “effect on 5α-reductase activity” value in series [1] was “did not show any effect”.

Regarding `O=C1c2c(O)cc(O)cc2O[C@H](c2ccc(O)c(O)c2)[C@H]1O` [(+)-taxifolin], the “effect on 5α-reductase activity” value in series [1] is recorded as “did not show any effect”.

Take `O=C(O[C@@H]1O[C@@H]2COC(=O)c3cc(O)c(O)c(O)c3-c3c(cc(O)c(O)c3O)C(=O)O[C@H]2[C@H](OC(=O)c2cc(O)c(O)c(O)c2)[C@H]1OC(=O)c1cc(O)c(O)c(O)c1)c1cc(O)c(O)c(O)c1` [Eugeniin, eugeniin]: the “inhibition of 5α-reductase activity” value in series [1] was “more than 50%”. The “Inhibitory activity on 5α-reductase (% of control)” value is recorded as 4.2 ± 1.0 % of control in series [1] (test sample 0.1 μmol/L), 13.9 ± 0.5 % of control in series [1] (test sample 1 μmol/L), 62.5 ± 0.6 % of control in series [1] (test sample 10 μmol/L) and 114.6 ± 0.6 % of control in series [1] (test sample 100 μmol/L). The same compound showed a pIC50 in series [1] of 4.96.

For the compound `O=C(OC[C@H]1OC(OC(=O)c2cc(O)c(O)c(O)c2)[C@H](OC(=O)c2cc(O)c(O)c(O)c2)[C@@H](OC(=O)c2cc(O)c(O)c(O)c2)[C@@H]1O)c1cc(O)c(O)c(O)c1` (stereo partly drawn) [Tetragalloyl glucose, 1,2,3,6-tetra-O-galloyl glucose], the “inhibition of 5α-reductase activity” value in series [1] is recorded as “more than 50%”. Further, the “Inhibitory activity on 5α-reductase (% of control)” value is 3.3 ± 0.5 % of control in series [1] (test sample 0.1 μmol/L), 18.7 ± 0.4 % of control in series [1] (test sample 1 μmol/L), 63.2 ± 3.0 % of control in series [1] (test sample 10 μmol/L) and 102.8 ± 1.2 % of control in series [1] (test sample 100 μmol/L). For the same compound, the negative-log IC50 (pIC50) in series [1] was 5.09.

As for `O=C(O[C@@H]1Cc2c(O)cc(O)cc2O[C@@H]1c1ccc(O)c(O)c1)c1cc(O)c(O)c(O)c1` [(−)-Epicatechin gallate, (−)-epicatechin gallate], the “inhibition of 5α-reductase activity” value in series [1] is on record as “more than 50%”. Also, the “Inhibitory activity on 5α-reductase (% of control)” value is 4.6 ± 0.2 % of control in series [1] (test sample 0.1 μmol/L), 4.9 ± 0.2 % of control in series [1] (test sample 1 μmol/L), 5.9 ± 0.3 % of control in series [1] (test sample 10 μmol/L) and 69.4 ± 1.2 % of control in series [1] (test sample 100 μmol/L). The same compound showed a pIC50 in series [1] of 4.00 to 5.00.

Consider `COC(=O)c1cc(O)c(O)c(O)c1` [methyl gallate], for which, in series [1], the “effect on 5α-reductase activity” value is “did not show any effect”.

For the compound `O=C(OC[C@H]1OC(O)[C@@](O)(COC(=O)c2cc(O)c(O)c(O)c2)[C@@H]1O)c1cc(O)c(O)c(O)c1` (stereo partly drawn) [Hamamelitannin, 2′,5-di-O-galloyl hamamelose], the “effect on 5α-reductase activity” value in series [1] is given as “did not show any effect”.

For `O=C(O)c1cc(O)c(O)c(O)c1` [gallic acid, Gallic acid], the “effect on 5α-reductase activity” value in series [1] was “did not show any effect”.

`Oc1cc(O)c2c(c1)O[C@H](c1ccc(O)c(O)c1)[C@@H](O)C2` [(+)-catechin]: in series [1], the “effect on 5α-reductase activity” value was “did not show any effect”.

On to triton X-100 [reference compound], for which, in series [2], the cytotoxicity entry is given as “significant cytotoxicity”.

For the compound `Oc1cc(O)c2c(c1)O[C@@H](c1cc(O)c(O)c(O)c1)[C@H](O)C2` [(−)-gallocatechin], the “effect on 5α-reductase activity” value in series [1] was “did not show any effect”.

For the compound `O=C(O[C@H]1[C@@H]2OC(=O)c3cc(O)c(O)c(O)c3-c3c(cc(O)c(O)c3O)C(=O)OC[C@H]2OC(O)[C@@H]1OC(=O)c1cc(O)c(O)c(O)c1)c1cc(O)c(O)c(O)c1` (stereo partly drawn) [1-Desgalloyl eugeniin, 1-desgalloyl eugeniin], the “inhibition of 5α-reductase activity” value in series [1] was “more than 50%”. The “Inhibitory activity on 5α-reductase (% of control)” value is 4.6 ± 0.2 % of control in series [1] (test sample 0.1 μmol/L), 9.2 ± 1.6 % of control in series [1] (test sample 1 μmol/L), 52.5 ± 2.4 % of control in series [1] (test sample 10 μmol/L) and 107.9 ± 0.9 % of control in series [1] (test sample 100 μmol/L). For the same compound, in series [1], the negative-log IC50 (pIC50) was 4.90.

Consider `O=C(O[C@@H]1COC(=O)c2cc(O)c(O)c(O)c2-c2c(cc(O)c(O)c2O)C(=O)O[C@H]1[C@@H]1OC(=O)c2cc(O)c(O)c(O)c2-c2c(O)c(O)c(O)c3c2C(=O)O[C@H]1[C@@H]3O)c1cc(O)c(O)c(O)c1` [Casuarinin, casuarinin], for which the “inhibition of 5α-reductase activity” value in series [1] is recorded as “more than 50%”. In addition, the “Inhibitory activity on 5α-reductase (% of control)” value in series [1] (test sample 0.1 μmol/L) was 6.4 ± 1.4 % of control; in series [1] (test sample 1 μmol/L), 10.8 ± 0.7 % of control; in series [1] (test sample 10 μmol/L), 59.0 ± 2.0 % of control; in series [1] (test sample 100 μmol/L), 110.1 ± 0.5 % of control. This compound gave a negative-log IC50 (pIC50) in series [1] of 4.98.

In the case of stenophyllanin C, the “inhibition of 5α-reductase activity” value in series [1] is “more than 50%”. The “Inhibitory activity on 5α-reductase (% of control)” value in series [1] (test sample 0.1 μmol/L) is 5.6 ± 0.6 % of control; in series [1] (test sample 1 μmol/L), 4.6 ± 0.5 % of control; in series [1] (test sample 10 μmol/L) it was 63.1 ± 0.4 % of control; in series [1] (test sample 100 μmol/L), 102.3 ± 2.2 % of control. The negative-log IC50 (pIC50) in series [1] is 5.14.

For the compound `Oc1cc(O)c2c(c1)O[C@H](c1cc(O)c(O)c(O)c1)[C@@H](O)C2` [(+)-gallocatechin, (+)-Gallocatechin], in series [1], the “effect on 5α-reductase activity” value was “did not show any effect”.

On to `O=C(O[C@@H]1Cc2c(O)cc(O)cc2O[C@@H]1c1cc(O)c(O)c(O)c1)c1cc(O)c(O)c(O)c1` [(−)-Epigallocatechin gallate, (−)-epigallocatechin gallate], for which the “inhibition of 5α-reductase activity” value in series [1] was “more than 50%”. The “Inhibitory activity on 5α-reductase (% of control)” value in series [1] (test sample 0.1 μmol/L) is recorded as 3.7 ± 0.1 % of control; in series [1] (test sample 1 μmol/L), 4.4 ± 0.4 % of control; in series [1] (test sample 10 μmol/L), 5.3 ± 0.3 % of control; in series [1] (test sample 100 μmol/L) it was 58.6 ± 2.7 % of control. In series [1], this compound showed a pIC50 of 4.00 to 5.00.

Turning to `O=C1OC[C@H]2OC(=O)c3cc(O)c(O)c(O)c3-c3c(O)c(O)c(O)c4c3C(=O)O[C@H]([C@H]3OC(=O)c5c-4c(O)c(O)c(O)c5[C@H]3O)[C@@H]2OC(=O)c2cc(O)c(O)c(O)c2-c2c1cc(O)c(O)c2O` [Castalagin, castalagin], the “inhibition of 5α-reductase activity” value in series [1] is “more than 50%”. Also, the “Inhibitory activity on 5α-reductase (% of control)” value in series [1] (test sample 0.1 μmol/L) is listed as 4.9 ± 0.5 % of control; in series [1] (test sample 1 μmol/L), 6.3 ± 1.2 % of control; in series [1] (test sample 10 μmol/L) it was 70.7 ± 3.2 % of control; in series [1] (test sample 100 μmol/L), 113.3 ± 7.6 % of control. The same compound had a pIC50 in series [1] of 5.10.
